In patent US6723897B2, “Methods for controlling gibberellin levels” (Monsanto Technology, LLC, priority 1998, dated 2004):

Tests used:
[1] = system: GA-deficient (Line 719, R5) soybeans; assay: Hilum treatment with GA15, GA19, GA24, GA44, hypocotyl length, GA-deficient soybean; type: in vivo, Glycine max; conditions: 10 μg/seed, 5 DAP
Description: Transgenic seeds are fifth generation (R5) line 719 seeds.

A3237 soybean = assay: Stature of soybean plants with ancymidol soil drench; type: in vivo, Glycine max
Description: R1 lines are also evaluated for stature reduction, a key indicator of GA-deficiency in soybean. R1 seeds are grown as described above. Plant height is routinely measured at approximately one week after planting. Four lines (696, 719, 720 and 724) are identified that had overall stature reduction relative to the control (A3237) line and the control line plus ancymidol (10 mg/L), an inhibitor of GA (Table 3). As these are segregating from R1 seeds, the distribution stature of the plants is evaluated. Three lines (719, 720 and 724) have a population of strong dwarf soybean plants (<25% the height of the average control plant). The segregation ratio of R1 pMON29801 (FMV/asCPScc) (FIG. 7) soybean plants is checked by phenotype (stature) and for the expression of CP4 5-enolpyruvylshikimate-3-phosphate synthase by ELISA (Rogan et al., J. Food Control, in Press (1998)). The results for both of these analyses are fairly consistent (Table 4): Line 696 segregated at about 1:3, line 719 at about 1:2, line 720 at about 2:1 and line 724 at about 3:1. Thus, only line 724 is what could be considered normal Mendelian segregation.
In soybean, GAs increase through mid-seed development, and then decline as the seed matures (Birnberg et al. (1986) Plant Physiol. 82:241-246). This trend is similar to that observed in other legumes. […] This is supported by the following observations (data not shown). […] This is well after germination and axis elongation have begun. Both of these observations support the hypothesis that soybean seed germination and early axis elongation are not dependent on de novo gibberellin biosynthesis.

## C=C1C[C@]23C[C@@]1(O)CC[C@H]2[C@@]12CCC[C@@](C)(C(=O)OC1)[C@H]2[C@@H]3C(=O)O [GA44]
[1]
  hypocotyl height of GA-deficient (Line 719) soybeans (FIG. 41): restored normal or greater hypocotyl height

## COc1ccc(C(O)(c2cncnc2)C2CC2)cc1 (stereo not shown) [ancymidol]
A3237 soybean; 7 DAP, ancymidol 10 mg/L
  Height (% of control): 14 % of control
A3237 soybean; ancymidol soil drench 10 mg/L
  Frequency of heights relative to A3237 control (%), 0-25%: 100%
  Frequency of heights relative to A3237 control (%), 25-50%: 0%
  Frequency of heights relative to A3237 control (%), 50-75%: 0%
  Frequency of heights relative to A3237 control (%), 75-100%: 0%
A3237 soybean; first one to two days of growth, data not shown
  soybean axis elongation: does not reduce soybean axis elongation

## C=C1C[C@]23C[C@@]1(O)CC[C@H]2[C@]1(C=O)CCC[C@@](C)(C(=O)O)[C@H]1[C@@H]3C(=O)O [GA19]
[1]
  hypocotyl height of GA-deficient (Line 719) soybeans (FIG. 41): restored normal or greater hypocotyl height

## GA15
[1]
  hypocotyl height of GA-deficient (Line 719) soybeans (FIG. 41): restored normal or greater hypocotyl height

## C=C1C[C@]23C[C@H]1CC[C@H]2[C@]1(C=O)CCC[C@@](C)(C(=O)O)[C@H]1[C@@H]3C(=O)O [GA24]
[1]
  hypocotyl height of GA-deficient (Line 719) soybeans (FIG. 41): restored normal or greater hypocotyl height
